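Each compound was tested at five concentrations against cells in 96-well plates for 48 hours. GI50 marks 50% less growth.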 Calls of active or inactive are those of the source. Cut-off read from the data, not from the text of the source: active = GI50 up to about 1.1 µM and inactive = higher.
Experiments:
Assay in all cases: growth of human tumour cells (NCI), 48 h
A498 = tested on: A498
A549 = tested on: A549
COLO 205 = tested on: COLO 205
HL-60 = tested on: HL-60
KM12 = tested on: KM12
MCF7 = tested on: MCF7
Malme-3M = tested on: Malme-3M
OVCAR-8 = tested on: OVCAR-8
RPMI-8226 = tested on: RPMI-8226
SF-268 = tested on: SF-268
SF-539 = tested on: SF-539
SNB-19 = tested on: SNB-19
SNB-75 = tested on: SNB-75
SW-620 = tested on: SW-620
TK-10 = tested on: TK-10
UACC-257 = tested on: UACC-257
HOP-62 = tested on: HOP-62
OVCAR-3 = tested on: OVCAR-3
PC-3 = tested on: PC-3
SR = tested on: SR

Measured: GI50

O=C(NCCCN(CCCCN(CCCNC(=O)C(F)(F)F)Cc1ccccc1)Cc1ccccc1)C(F)(F)F
inactive: A498 20.6 µM | A549 24.2 µM | COLO 205 10.7 µM | HL-60 12.9 µM | KM12 13.2 µM | MCF7 12.3 µM | Malme-3M 15.1 µM | OVCAR-8 14 µM | RPMI-8226 16 µM | SF-268 12.5 µM | SF-539 13.5 µM | SNB-19 13.7 µM | SNB-75 12.6 µM | SW-620 16.5 µM | TK-10 23.3 µM | UACC-257 5.07 µM

CC1=C[C@H](O)[C@@]2(C)[C@@H]([C@@H]1C)[C@H]1CC[C@@H]3[C@@]4(C)CC[C@H](O)C(C)(C)[C@@H]4CC[C@@]3(C)[C@]1(C)C[C@@H]2O
inactive: A549 12.8 µM | COLO 205 16.6 µM | HOP-62 17.3 µM | KM12 22.1 µM | Malme-3M 20.6 µM | OVCAR-3 16.8 µM | OVCAR-8 20.6 µM | PC-3 20.6 µM | SF-268 10.5 µM | SNB-19 15.8 µM | SW-620 22.1 µM | TK-10 22.2 µM | UACC-257 20.1 µM

CN1CCC2(CC1)SSC1(CCN(C)CC1)S2
inactive: A549 > 100 µM | COLO 205 80.2 µM | HL-60 > 100 µM | HOP-62 > 100 µM | KM12 > 100 µM | OVCAR-8 > 100 µM | PC-3 > 100 µM | RPMI-8226 > 100 µM | SF-539 > 100 µM | SNB-19 69.3 µM | SNB-75 > 100 µM | SR > 100 µM | SW-620 > 100 µM | UACC-257 > 100 µM

COc1cc(C=O)c(-c2c(C=O)ccc3c2OCO3)c(OC)c1OC
inactive: A498 > 100 µM | A549 > 100 µM | COLO 205 64.9 µM | HL-60 26.7 µM | HOP-62 > 100 µM | KM12 78.3 µM | Malme-3M 67.3 µM | OVCAR-3 72.6 µM | OVCAR-8 > 100 µM | RPMI-8226 56.5 µM | SF-268 89.3 µM | SF-539 > 100 µM | SNB-19 49.8 µM | SNB-75 55.2 µM | SR 29.6 µM | SW-620 38.2 µM | TK-10 > 100 µM | UACC-257 > 100 µM

C1C2CC3CC1CC(c1nn4c(C56CC7CC(CC(C7)C5)C6)nnc4s1)(C2)C3
inactive: A498 > 100 µM | A549 > 100 µM | COLO 205 > 100 µM | HL-60 > 100 µM | HOP-62 > 100 µM | KM12 > 100 µM | Malme-3M > 100 µM | OVCAR-3 > 100 µM | PC-3 > 100 µM | RPMI-8226 > 100 µM | SF-268 > 100 µM | SF-539 > 100 µM | SNB-19 > 100 µM | SNB-75 > 100 µM | SR > 100 µM | SW-620 > 100 µM | TK-10 > 100 µM

Cc1ccc(S(=O)(=O)N2CCNCCN(S(=O)(=O)c3ccc(C)cc3)CCNCC2)cc1
inactive: A498 23.2 µM | A549 34.2 µM | COLO 205 16.4 µM | HL-60 10.2 µM | HOP-62 16.6 µM | KM12 20.8 µM | MCF7 27.3 µM | Malme-3M 17.5 µM | OVCAR-3 14.2 µM | OVCAR-8 19.2 µM | SF-268 21.8 µM | SF-539 19.1 µM | SNB-19 31 µM | SNB-75 20.2 µM | SR 16.4 µM | SW-620 35.5 µM | TK-10 18.3 µM | UACC-257 16.4 µM

COc1ccc(-c2c(C(C)=O)c(-c3ccccc3)n(C3OC(CO)C(O)C(O)C3O)c(=S)c2C#N)cc1 (centres undefined)
inactive: A498 > 100 µM | A549 > 100 µM | COLO 205 > 100 µM | HL-60 > 100 µM | HOP-62 > 100 µM | KM12 > 100 µM | MCF7 > 100 µM | Malme-3M > 100 µM | OVCAR-3 > 100 µM | OVCAR-8 > 100 µM | SF-268 > 100 µM | SF-539 > 100 µM | SNB-19 > 100 µM | SW-620 > 100 µM | TK-10 > 100 µM | UACC-257 > 100 µM

Cc1cc(Cl)ccc1NC(=O)CC/C(CC(=O)C(C)C)=N\NC(=O)C[n+]1ccccc1
inactive: A498 > 100 µM | A549 > 100 µM | COLO 205 > 100 µM | HL-60 > 100 µM | HOP-62 > 100 µM | KM12 > 100 µM | Malme-3M > 100 µM | OVCAR-3 > 100 µM | OVCAR-8 > 100 µM | RPMI-8226 > 100 µM | SF-268 > 100 µM | SF-539 > 100 µM | SNB-19 > 100 µM | SNB-75 > 100 µM | SR > 100 µM | SW-620 > 100 µM | TK-10 > 100 µM | UACC-257 > 100 µM

Nc1nc(SCCc2ccccc2)c2nc[nH]c2n1
inactive: A498 19.1 µM | A549 > 100 µM | HOP-62 50.5 µM | KM12 > 100 µM | Malme-3M 64.9 µM | OVCAR-3 45.1 µM | OVCAR-8 95.9 µM | PC-3 38.9 µM | SF-268 46.6 µM | SNB-19 > 100 µM | SNB-75 33 µM | SR 36.2 µM | SW-620 76.9 µM | TK-10 19.6 µM | UACC-257 23.7 µM

COc1cccc(/C=C2\N=C(Cl)OC2=O)c1O
inactive: A498 > 100 µM | A549 > 100 µM | COLO 205 > 100 µM | HL-60 > 100 µM | HOP-62 > 100 µM | KM12 > 100 µM | Malme-3M > 100 µM | OVCAR-3 > 100 µM | OVCAR-8 > 100 µM | RPMI-8226 > 73.5 µM | SF-268 > 80 µM | SF-539 > 100 µM | SNB-19 > 100 µM | SNB-75 30.5 µM | SR > 88.9 µM | SW-620 > 66.4 µM | TK-10 > 100 µM | UACC-257 > 100 µM

CCOC(=O)C(/N=N\c1ccc(S(N)(=O)=O)cc1)C(C)=O (centres undefined)
inactive: A498 > 100 µM | A549 > 100 µM | COLO 205 > 100 µM | HL-60 > 100 µM | HOP-62 > 100 µM | KM12 > 100 µM | Malme-3M > 100 µM | OVCAR-3 > 100 µM | OVCAR-8 > 100 µM | RPMI-8226 > 100 µM | SF-268 > 100 µM | SF-539 > 100 µM | SNB-19 > 100 µM | SNB-75 > 100 µM | SR > 100 µM | SW-620 > 100 µM | TK-10 > 100 µM | UACC-257 > 100 µM

CC1(CO)OC(n2cc(C(=O)NC(=O)OCc3ccccc3)c(=O)[nH]c2=O)CC1O (centres undefined)
inactive: A498 > 100 µM | A549 > 100 µM | COLO 205 > 100 µM | HL-60 > 100 µM | HOP-62 > 100 µM | KM12 > 100 µM | Malme-3M > 100 µM | OVCAR-3 > 100 µM | OVCAR-8 > 100 µM | RPMI-8226 > 100 µM | SF-268 > 100 µM | SF-539 > 100 µM | SNB-19 > 100 µM | SNB-75 84.5 µM | SR > 100 µM | SW-620 > 100 µM | TK-10 > 100 µM | UACC-257 > 100 µM

— ChEMBL document CHEMBL1201862, “PubChem BioAssay data set” (2004)
